# Literature values in patent publication US20080008798A1, “Salts of astaxathin esters” (priority 2002, published 2008).
# Legend:
# [1] = per week; storage of the manufactured feed under ambient conditions
# flesh pigmentation = details: feeding non-formulated astaxanthin
structure (smiles),measurement,setting,value
CC1=C(/C=C/C(C)=C/C=C/C(C)=C/C=C/C=C(C)/C=C/C=C(C)/C=C/C2=C(C)C(=O)[C@@H](O)CC2(C)C)C(C)(C)C[C@H](O)C1=O [astaxanthin],contained pigment lost through degradation during storage,[1],about 2%
same,pigmentation effect,flesh pigmentation,almost no pigmentation effect
